Literature values in article PMC6114101 (International Journal for Parasitology: Drugs and Drug …, 2018).

Experiments:
N. caninum = settings: ref Ojo et al., 2014; Winzer et al., 2015; Müller et al., 2017a
[1] = test system: human ether-a-go-go-related gene (hERG) ion channel; settings: ref Vidadala et al., 2016
[2] = ref Ojo et al., 2013

In the case of CCOc1ccc2cc(-c3nn(C(C)(C)C)c(N)c3C(N)=O)cnc2c1 [BKI-1517], the “activity against N. caninum in vitro” value (N. caninum) is given as “effective”.

In the case of CCOc1ccc2cc(-c3nn(CC4CCN(C)CC4)c4ncnc(N)c34)ccc2c1 [BKI-1294], the “activity against N. caninum in vitro” value (N. caninum) is given as “effective”, the hERG inhibition [1] is given as “potent” and the excreted in urine [2] is given as 1%.
